Measurements: ChEMBL document CHEMBL3997829, “Discovery of novel substituted octahydropyrrolo[3,4-c]pyrroles as dual orexin receptor antagonists for insomnia treatment” (Bioorg Med Chem Lett, 2017)
Converted amounts (≈) assume the structure as drawn.

Experiments:
[1] = target: T1, Orexin/Hypocretin receptor type 1 (Homo sapiens, UniProt O43613); assay: Antagonist activity at human orexin 1 receptor expressed in HEK293 cells assessed as inhibition of orexin-induced calcium mobilization after 60 mins by FLIPR assay; assay type: functional, cell-based
T1 sequence (O43613 whole entry): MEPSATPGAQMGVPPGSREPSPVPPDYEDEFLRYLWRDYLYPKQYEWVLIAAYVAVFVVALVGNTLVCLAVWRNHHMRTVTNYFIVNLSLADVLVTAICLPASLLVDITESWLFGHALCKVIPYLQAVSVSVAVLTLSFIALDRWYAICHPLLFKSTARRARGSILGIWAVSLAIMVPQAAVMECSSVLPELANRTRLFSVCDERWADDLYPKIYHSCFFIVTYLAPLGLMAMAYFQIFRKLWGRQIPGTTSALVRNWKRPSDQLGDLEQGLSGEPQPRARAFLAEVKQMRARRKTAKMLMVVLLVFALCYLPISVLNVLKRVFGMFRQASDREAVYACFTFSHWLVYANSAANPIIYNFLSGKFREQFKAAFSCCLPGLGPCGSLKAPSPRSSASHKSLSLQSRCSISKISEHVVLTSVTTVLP

[2] = target: T2, Orexin receptor type 2 (Homo sapiens, UniProt O43614); assay: Antagonist activity at human orexin 2 receptor expressed in HEK293 cells assessed as inhibition of orexin-induced calcium mobilization after 60 mins by FLIPR assay; assay type: functional, cell-based
T2 sequence (O43614 whole entry): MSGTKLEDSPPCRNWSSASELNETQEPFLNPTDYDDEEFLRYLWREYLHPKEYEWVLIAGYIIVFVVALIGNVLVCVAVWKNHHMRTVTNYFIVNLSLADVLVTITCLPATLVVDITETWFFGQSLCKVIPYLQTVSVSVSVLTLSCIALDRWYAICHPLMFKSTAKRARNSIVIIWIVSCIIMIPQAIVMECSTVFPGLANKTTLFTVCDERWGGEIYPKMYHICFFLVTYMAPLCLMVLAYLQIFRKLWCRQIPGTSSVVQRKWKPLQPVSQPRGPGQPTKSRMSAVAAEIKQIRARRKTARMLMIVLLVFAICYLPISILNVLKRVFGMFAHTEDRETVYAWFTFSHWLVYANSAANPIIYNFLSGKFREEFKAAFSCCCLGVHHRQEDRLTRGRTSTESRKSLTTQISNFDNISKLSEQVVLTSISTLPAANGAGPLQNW

[3] = Thermodynamic solubility of the compound in phosphate buffer at pH 7.4 by HPLC method; assay type: physicochemical; details: read-out: Therm_solubility
[4] = Plasma concentration in Sprague-Dawley rat at 10 mg/kg, po at 0.3 hrs; assay type: ADME, organism-based
[5] = Plasma concentration in Sprague-Dawley rat at 10 mg/kg, po at 1 hr; assay type: ADME, organism-based
[6] = Plasma concentration in Sprague-Dawley rat at 10 mg/kg, po at 4 hrs; assay type: ADME, organism-based
[7] = tested on: Brain; assay: Drug uptake in Sprague-Dawley rat brain at 10 mg/kg, po at 0.3 hrs; assay type: ADME, organism-based; details: in vivo
[8] = tested on: Brain; assay: Drug uptake in Sprague-Dawley rat brain at 10 mg/kg, po at 1 hr; assay type: ADME, organism-based; details: in vivo
[9] = tested on: Brain; assay: Drug uptake in Sprague-Dawley rat brain at 10 mg/kg, po at 4 hrs; assay type: ADME, organism-based; details: in vivo
[10] = Ratio of drug level in brain to plasma in Sprague-Dawley rat at 10 mg/kg, po at 0.5 hrs; assay type: ADME, organism-based; details: read-out: BPR
[11] = Ratio of drug level in brain to plasma in Sprague-Dawley rat at 10 mg/kg, po at 1 hr; assay type: ADME, organism-based; details: read-out: BPR
[12] = Ratio of drug level in brain to plasma in Sprague-Dawley rat at 10 mg/kg, po at 4 hrs; assay type: ADME, organism-based; details: read-out: BPR
[13] = Clearance in Sprague-Dawley rat at 2 mg/kg, iv; assay type: ADME, organism-based; details: in vivo
[14] = Half life in Sprague-Dawley rat at 2 mg/kg, iv; assay type: ADME, organism-based; details: in vivo
[15] = AUC in Sprague-Dawley rat at 15 mg/kg, po; assay type: ADME, organism-based; details: in vivo
[16] = Cmax in Sprague-Dawley rat at 15 mg/kg, po; assay type: ADME, organism-based; design: dose 15 mg/kg, route oral; details: in vivo
[17] = Tmax in Sprague-Dawley rat at 15 mg/kg, po; assay type: ADME, organism-based; details: in vivo
[18] = Oral bioavailability in Sprague-Dawley rat at 15 mg/kg; assay type: ADME, organism-based; details: in vivo
[19] = tested on: Rattus norvegicus; assay: Sleep promoting activity in Sprague-Dawley rat assessed as decrease in active wake time at 30 mg/kg, po measured over 2 hrs by electroencephalogram method; assay type: functional
[20] = tested on: Rattus norvegicus; assay: Sleep promoting activity in Sprague-Dawley rat assessed as decrease in active wake time at 90 mg/kg, po measured over 2 hrs by electroencephalogram method; assay type: functional
[21] = tested on: Rattus norvegicus; assay: Sleep promoting activity in Sprague-Dawley rat assessed as effect on rapid eye movement sleep time at 30 mg/kg, po measured over 2 hrs by electroencephalogram method; assay type: functional
[22] = tested on: Rattus norvegicus; assay: Sleep promoting activity in Sprague-Dawley rat assessed as effect on rapid eye movement sleep time at 90 mg/kg, po measured over 2 hrs by electroencephalogram method; assay type: functional
[23] = tested on: Rattus norvegicus; assay: Sleep promoting activity in Sprague-Dawley rat assessed as increase in slow wave sleep time at 30 mg/kg, po measured over 2 hrs by electroencephalogram method; assay type: functional
[24] = tested on: Rattus norvegicus; assay: Sleep promoting activity in Sprague-Dawley rat assessed as increase in slow wave sleep time at 90 mg/kg, po measured over 2 hrs by electroencephalogram method; assay type: functional
[25] = tested on: Rattus norvegicus; assay: Sleep promoting activity in po dosed Sprague-Dawley rat assessed as decrease in active wake time measured over 2 hrs by electroencephalogram method; assay type: functional, organism-based
[26] = tested on: Rattus norvegicus; assay: Sleep promoting activity in po dosed Sprague-Dawley rat assessed as increase in slow wave sleep time measured over 2 hrs by electroencephalogram method; assay type: functional, organism-based

Compound: Cc1ccc(-n2nccn2)c(C(=O)N2C[C@@H]3CN(c4nc5ccccc5o4)C[C@@H]3C2)c1
- IC50 [1]: 303 nM
- IC50 [2]: 178 nM
- solubility thermodynamic [3]: 41 µM (≈ 17 µg/mL)
- concentration at 0.3 h [4]: 8.79 µM
- concentration at 1 h [5]: 3.47 µM
- concentration at 4 h [6]: 341 nM
- Drug uptake [7]: 1134 nmol/kg
- Drug uptake [8]: 429 nmol/kg
- Drug uptake [9]: 22 nmol/kg
- Kp at 0.5 h [10]: 0.13
- Kp at 1 h [11]: 0.12
- Kp at 4 h [12]: 0.06
- clearance [13]: 10 mL/min/kg
- half-life [14]: 114 min
- AUC [15]: 20.3 µM·h
- Cmax [16]: 10.6 µM
- Tmax [17]: 15 min
- bioavailability [18]: 23%
- Time [19]: 25.7 min
- Time [20]: 41.1 min
- Time [21]: -0.1 min
- Time [22]: 4.3 min
- Time [23]: 25.9 min
- Time [24]: 36.9 min
- Activity [25]: Dose-dependent effect
- Activity [26]: Dose-dependent effect
